In test [1] the target is LON-1 (Caenorhabditis elegans, UniProt Q09566, C185Y). The test can be described thus: biochemical.
The target in test [2] is LON-1 (Caenorhabditis elegans, UniProt Q09566, E153A). The test can be described thus: biochemical.
Test [3] addresses LON-1 (Caenorhabditis elegans, UniProt Q09566, C207S). Nature of the test: biochemical.
Test [4] deals with LON-1 (Caenorhabditis elegans, UniProt Q09566, V175A). The test can be described thus: biochemical.
Test [5] deals with T1, LON-1 (Caenorhabditis elegans, UniProt Q09566).
T1 sequence (Q09566 24-312): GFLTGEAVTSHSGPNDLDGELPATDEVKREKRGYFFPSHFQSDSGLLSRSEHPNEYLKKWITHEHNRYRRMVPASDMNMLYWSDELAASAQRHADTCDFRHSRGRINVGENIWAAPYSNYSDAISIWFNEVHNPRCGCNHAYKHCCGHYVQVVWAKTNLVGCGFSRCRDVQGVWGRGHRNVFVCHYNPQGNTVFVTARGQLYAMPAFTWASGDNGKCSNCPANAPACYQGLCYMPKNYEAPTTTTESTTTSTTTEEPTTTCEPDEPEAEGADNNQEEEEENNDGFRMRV
Nature of the test: microscale thermophoresis. The class given is binding.

Structures can show the parent of a compound that is named as a salt.

LON-1 (Caenorhabditis elegans, UniProt Q09566, C207S), sequence (Q09566 24-312 C207S): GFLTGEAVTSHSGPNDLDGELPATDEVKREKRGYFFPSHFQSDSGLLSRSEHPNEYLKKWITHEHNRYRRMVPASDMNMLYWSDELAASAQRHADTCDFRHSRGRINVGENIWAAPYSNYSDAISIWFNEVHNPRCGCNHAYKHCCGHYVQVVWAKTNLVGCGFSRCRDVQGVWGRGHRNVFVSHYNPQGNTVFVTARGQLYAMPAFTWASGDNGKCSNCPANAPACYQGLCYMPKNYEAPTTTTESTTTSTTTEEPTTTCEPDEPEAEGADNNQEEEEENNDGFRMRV
LON-1 (Caenorhabditis elegans, UniProt Q09566, E153A), sequence (Q09566 24-312 E153A): as the sequence (Q09566 24-312 C207S) above, with E130A, S184C counted along it
LON-1 (Caenorhabditis elegans, UniProt Q09566, V175A), sequence (Q09566 24-312 V175A): as the sequence (Q09566 24-312 C207S) above, with V152A, S184C counted along it
LON-1 (Caenorhabditis elegans, UniProt Q09566, C185Y), sequence (Q09566 24-312 C185Y): as the sequence (Q09566 24-312 C207S) above, with C162Y, S184C counted along it

One may read the Kd as a measure of binding affinity in units of concentration. Lower therefore signals higher affinity. With `CC(C)CCC[C@@H](C)[C@H]1CC[C@H]2[C@@H]3CC=C4C[C@@H](OS(=O)(=O)O)CC[C@]4(C)[C@H]3CC[C@]12C` [cholesterol sulfate], the Kd at LON-1 [1] was 261 ± 92 µM; at LON-1 [2], 26 ± 8 µM; on LON-1 [3], 332 ± 145 µM; on LON-1 [4], 76 ± 24 µM; on LON-1 [5] it was around 19 µM.

Compound `CCCCCCCCCCCCCCCC(=O)O` [palmitic acid] returned an equilibrium dissociation constant (Kd) at LON-1 [5] of around 430 µM.

Values taken from publication doi:10.1101/2024.10.01.616164v1 (biorxiv, 2024).
